Reference: ChEMBL document CHEMBL2010711, “Synthesis and comparative evaluation of 4-oxa- and 4-aza-podophyllotoxins as antiproliferative microtubule destabilizing agents” (Bioorg Med Chem Lett, 2012)
The source made the active and inactive calls.

What was measured:
SF-295 = test: Cytotoxicity against human SF295 cells after 48 hrs by trypan blue dye exclusion assay; format: functional; settings: SF-295, 48 h
SF-539 = test: Cytotoxicity against human SF539 cells after 48 hrs by trypan blue dye exclusion assay; format: functional; settings: SF-539, 48 h
UACC-62 = test: Cytotoxicity against human UACC62 cells after 48 hrs by trypan blue dye exclusion assay; format: functional; settings: UACC-62, 48 h
786-0 = test: Cytotoxicity against human 786-0 cells after 48 hrs by trypan blue dye exclusion assay; format: functional; settings: 786-0, 48 h
MCF7 = test: Cytotoxicity against human MCF7 cells after 48 hrs by trypan blue dye exclusion assay; format: functional; settings: MCF7, 48 h
Paracentrotus lividus [1] = test: Microtubule destabilizing activity in Paracentrotus lividus embryo assessed as embryo spinning at 2 fold less effective threshold concentration after 15 mins to 20 hrs; format: functional, organism-based
OVCAR-4 = test: Cytotoxicity against human OVCAR4 cells after 48 hrs by trypan blue dye exclusion assay; format: functional; settings: OVCAR-4, 48 h
Paracentrotus lividus [2] = test: Antimitotic activity against Paracentrotus lividus embryo assessed as cleavage alteration at 2 fold less effective threshold concentration after 2.5 to 6 hrs; format: functional, organism-based
SK-OV-3 = test: Cytotoxicity against human SKOV3 cells after 48 hrs by trypan blue dye exclusion assay; format: functional; settings: SK-OV-3, 48 h
SNB-19 = test: Cytotoxicity against human SNB19 cells after 48 hrs by trypan blue dye exclusion assay; format: functional; settings: SNB-19, 48 h
LOX IMVI = test: Cytotoxicity against human LOXIMVI cells after 48 hrs by trypan blue dye exclusion assay; format: functional
A549 = test: Cytotoxicity against human A549 cells after 48 hrs by trypan blue dye exclusion assay; format: functional; settings: A549, 48 h
EKVX = test: Cytotoxicity against human EKVX cells after 48 hrs by trypan blue dye exclusion assay; format: functional
ACHN = test: Cytotoxicity against human ACHN cells after 48 hrs by trypan blue dye exclusion assay; format: functional
SW-620 = test: Cytotoxicity against human SW620 cells after 48 hrs by trypan blue dye exclusion assay; format: functional; settings: SW-620, 48 h
SF-268 = test: Cytotoxicity against human SF268 cells after 48 hrs by trypan blue dye exclusion assay; format: functional; settings: SF-268, 48 h
NCI-H322M = test: Cytotoxicity against human NCI-H322M cells after 48 hrs by trypan blue dye exclusion assay; format: functional
MDA-MB-231 = test: Cytotoxicity against human MDA-MB-231 cells after 48 hrs by trypan blue dye exclusion assay; format: functional; settings: MDA-MB-231, 48 h
M14 = test: Cytotoxicity against human M14 cells after 48 hrs by trypan blue dye exclusion assay; format: functional; settings: M14, 48 h
HCT-116 = test: Cytotoxicity against human HCT116 cells after 48 hrs by trypan blue dye exclusion assay; format: functional; settings: HCT-116, 48 h
TK-10 = test: Cytotoxicity against human TK10 cells after 48 hrs by trypan blue dye exclusion assay; format: functional; settings: TK-10, 48 h
UO-31 = test: Cytotoxicity against human UO31 cells after 48 hrs by trypan blue dye exclusion assay; format: functional; settings: UO-31, 48 h
NCI-H23 = test: Cytotoxicity against human NCI-H23 cells after 48 hrs by trypan blue dye exclusion assay; format: functional; settings: NCI-H23, 48 h
HOP-92 = test: Cytotoxicity against human HOP92 cells after 48 hrs by trypan blue dye exclusion assay; format: functional; settings: HOP-92, 48 h
NCI-H226 = test: Cytotoxicity against human NCI-H226 cells after 48 hrs by trypan blue dye exclusion assay; format: functional; settings: NCI-H226, 48 h
NCI-H460 = test: Cytotoxicity against human NCI-H460 cells after 48 hrs by trypan blue dye exclusion assay; format: functional; settings: NCI-H460, 48 h
SR = test: Cytotoxicity against human SR cells after 48 hrs by trypan blue dye exclusion assay; format: functional
KM12 = test: Cytotoxicity against human KM12 cells after 48 hrs by trypan blue dye exclusion assay; format: functional; settings: KM12, 48 h
OVCAR-8 = test: Cytotoxicity against human OVCAR8 cells after 48 hrs by trypan blue dye exclusion assay; format: functional; settings: OVCAR-8, 48 h
NCI-H522 = test: Cytotoxicity against human NCI-H522 cells after 48 hrs by trypan blue dye exclusion assay; format: functional; settings: NCI-H522, 48 h
OVCAR-3 = test: Cytotoxicity against human OVCAR3 cells after 48 hrs by trypan blue dye exclusion assay; format: functional; settings: OVCAR-3, 48 h
SNB-75 = test: Cytotoxicity against human SNB75 cells after 48 hrs by trypan blue dye exclusion assay; format: functional; settings: SNB-75, 48 h
DU-145 = test: Cytotoxicity against human DU145 cells after 48 hrs by trypan blue dye exclusion assay; format: functional; settings: DU-145, 48 h
Paracentrotus lividus [3] = test: Antimitotic activity against Paracentrotus lividus embryo assessed as cleavage arrest at 2 fold less effective threshold concentration after 2.5 to 6 hrs; format: functional, organism-based
CAKI-1 = test: Cytotoxicity against human CAKI-1 cells after 48 hrs by trypan blue dye exclusion assay; format: functional; settings: CAKI-1, 48 h
IGROV-1 = test: Cytotoxicity against human IGROV1 cells after 48 hrs by trypan blue dye exclusion assay; format: functional; settings: IGROV-1, 48 h
CCRF-CEM = test: Cytotoxicity against human CCRF-CEM cells after 48 hrs by trypan blue dye exclusion assay; format: functional
MOLT-4 = test: Cytotoxicity against human MOLT4 cells after 48 hrs by trypan blue dye exclusion assay; format: functional; settings: MOLT-4, 48 h
COLO 205 = test: Cytotoxicity against human COLO205 cells after 48 hrs by trypan blue dye exclusion assay; format: functional; settings: COLO 205, 48 h
HL-60(TB) = test: Cytotoxicity against human HL-60(TB) cells after 48 hrs by trypan blue dye exclusion assay; format: functional; settings: HL-60, 48 h
BT-549 = test: Cytotoxicity against human BT549 cells after 48 hrs by trypan blue dye exclusion assay; format: functional; settings: BT-549, 48 h
UACC-257 = test: Cytotoxicity against human UACC257 cells after 48 hrs by trypan blue dye exclusion assay; format: functional; settings: UACC-257, 48 h
U-251 = test: Cytotoxicity against human U251 cells after 48 hrs by trypan blue dye exclusion assay; format: functional; settings: U-251, 48 h
A498 = test: Cytotoxicity against human A498 cells after 48 hrs by trypan blue dye exclusion assay; format: functional; settings: A498, 48 h
MDA-MB-468 = test: Cytotoxicity against human MDA-MB-468 cells after 48 hrs by trypan blue dye exclusion assay; format: functional; settings: MDA-MB-468, 48 h
[4] = Cytotoxicity against human Hs 578T cells after 48 hrs by trypan blue dye exclusion assay; format: functional
SK-MEL-5 = test: Cytotoxicity against human SK-MEL-5 cells after 48 hrs by trypan blue dye exclusion assay; format: functional; settings: SK-MEL-5, 48 h
SK-MEL-2 = test: Cytotoxicity against human SK-MEL-2 cells after 48 hrs by trypan blue dye exclusion assay; format: functional; settings: SK-MEL-2, 48 h
HCC 2998 = test: Cytotoxicity against human HCC2998 cells after 48 hrs by trypan blue dye exclusion assay; format: functional; settings: HCC 2998, 48 h
OVCAR-5 = test: Cytotoxicity against human OVCAR5 cells after 48 hrs by trypan blue dye exclusion assay; format: functional; settings: OVCAR-5, 48 h
MDA-MB-435 = test: Cytotoxicity against human MDA-MB-435 cells after 48 hrs by trypan blue dye exclusion assay; format: functional; settings: MDA-MB-435, 48 h
RPMI-8226 = test: Cytotoxicity against human RPMI8226 cells after 48 hrs by trypan blue dye exclusion assay; format: functional; settings: RPMI-8226, 48 h
PC-3 = test: Cytotoxicity against human PC3 cells after 48 hrs by trypan blue dye exclusion assay; format: functional; settings: PC-3, 48 h
HCT-15 = test: Cytotoxicity against human HCT15 cells after 48 hrs by trypan blue dye exclusion assay; format: functional; settings: HCT-15, 48 h
Malme-3M = test: Cytotoxicity against human MALME-3M cells after 48 hrs by trypan blue dye exclusion assay; format: functional
SK-MEL-28 = test: Cytotoxicity against human SK-MEL-28 cells after 48 hrs by trypan blue dye exclusion assay; format: functional; settings: SK-MEL-28, 48 h
RXF 393 = test: Cytotoxicity against human RXF393 cells after 48 hrs by trypan blue dye exclusion assay; format: functional; settings: RXF 393, 48 h
NCI/ADR-RES = test: Cytotoxicity against human NCI/ADR-RES cells after 48 hrs by trypan blue dye exclusion assay; format: functional
SN12C = test: Cytotoxicity against human SN12C cells after 48 hrs by trypan blue dye exclusion assay; format: functional
HT-29 = test: Cytotoxicity against human HT-29 cells after 48 hrs by trypan blue dye exclusion assay; format: functional; settings: HT-29, 48 h

COc1cc([C@H]2C3=C(COC3=O)Nc3cc4c(cc32)OCO4)cc2c1OCO2
GI50 (SF-295): 29 nM
GI50 (SF-539): 48.3 nM
GI50 (UACC-62): 48 nM
GI50 (786-0): 321 nM
GI50 (MCF7): 37.2 nM
Activity (Paracentrotus lividus [1]): inactive
GI50 (OVCAR-4): 98.4 nM
Activity (Paracentrotus lividus [2]): inactive
GI50 (SK-OV-3): 155 nM
GI50 (SNB-19): 362 nM
GI50 (LOX IMVI): 117 nM
GI50 (A549): 306 nM
GI50 (EKVX): 320 nM
GI50 (ACHN): 357 nM
GI50 (SW-620): 98.2 nM
GI50 (SF-268): 108 nM
GI50 (NCI-H322M): 142 nM
GI50 (MDA-MB-231): 308 nM
GI50 (M14): 228 nM
GI50 (HCT-116): 236 nM
GI50 (TK-10): 115 nM
GI50 (UO-31): 1380 nM
GI50 (NCI-H23): 142 nM
GI50 (HOP-92): 136 nM
GI50 (NCI-H226): 4590 nM
GI50 (NCI-H460): 690 nM
GI50 (SR): 60.1 nM
GI50 (KM12): 36.2 nM
GI50 (OVCAR-8): 232 nM
GI50 (NCI-H522): 144 nM
GI50 (OVCAR-3): 31.9 nM
GI50 (SNB-75): 26.7 nM
GI50 (DU-145): 173 nM
Activity (Paracentrotus lividus [3]): inactive
GI50 (CAKI-1): 128 nM
GI50 (IGROV-1): 185 nM
GI50 (CCRF-CEM): 120 nM
GI50 (MOLT-4): 360 nM
GI50 (COLO 205): 186 nM
GI50 (HL-60(TB)): 99 nM
GI50 (BT-549): 338 nM
GI50 (UACC-257): 74.1 nM
GI50 (U-251): 108 nM
GI50 (A498): 30.9 nM
GI50 (MDA-MB-468): 119 nM
GI50 [4]: 37.8 nM
GI50 (SK-MEL-5): 101 nM
GI50 (SK-MEL-2): 207 nM
GI50 (HCC 2998): 387 nM
GI50 (OVCAR-5): 1090 nM
GI50 (MDA-MB-435): 26.9 nM
GI50 (RPMI-8226): 93.1 nM
GI50 (PC-3): 80.3 nM
GI50 (HCT-15): 256 nM
GI50 (Malme-3M): > 100000 nM
GI50 (SK-MEL-28): 61 nM
GI50 (RXF 393): 30.3 nM
GI50 (NCI/ADR-RES): 103 nM
GI50 (SN12C): 350 nM
GI50 (HT-29): 1250 nM

COc1cc(OC)cc(C2C3=C(COC3=O)Nc3cc(OC)ccc32)c1 (centres undefined)
GI50 (SF-295): < 10 nM
GI50 (SF-539): < 10 nM
GI50 (UACC-62): < 10 nM
GI50 (786-0): 20.3 nM
GI50 (MCF7): < 10 nM
Activity (Paracentrotus lividus [1]): inactive
GI50 (OVCAR-4): < 10 nM
Activity (Paracentrotus lividus [2]): inactive
GI50 (SK-OV-3): < 10 nM
GI50 (SNB-19): 27.8 nM
GI50 (LOX IMVI): < 10 nM
GI50 (A549): < 10 nM
GI50 (EKVX): < 10 nM
GI50 (ACHN): < 10 nM
GI50 (SW-620): < 10 nM
GI50 (SF-268): < 10 nM
GI50 (NCI-H322M): < 10 nM
GI50 (MDA-MB-231): 16.5 nM
GI50 (M14): < 10 nM
GI50 (HCT-116): < 10 nM
GI50 (TK-10): 39700 nM
GI50 (UO-31): 48.8 nM
GI50 (NCI-H23): < 10 nM
GI50 (HOP-92): < 10 nM
GI50 (NCI-H226): 14400 nM
GI50 (NCI-H460): < 10 nM
GI50 (SR): < 10 nM
GI50 (KM12): < 10 nM
GI50 (OVCAR-8): 20.4 nM
GI50 (NCI-H522): < 10 nM
GI50 (OVCAR-3): < 10 nM
GI50 (SNB-75): < 10 nM
GI50 (DU-145): < 10 nM
Activity (Paracentrotus lividus [3]): inactive
GI50 (CAKI-1): < 10 nM
GI50 (IGROV-1): < 10 nM
GI50 (CCRF-CEM): < 10 nM
GI50 (MOLT-4): < 10 nM
GI50 (COLO 205): < 10 nM
GI50 (HL-60(TB)): < 10 nM
GI50 (BT-549): 13.8 nM
GI50 (UACC-257): > 100000 nM
GI50 (U-251): < 10 nM
GI50 (A498): < 10 nM
GI50 (MDA-MB-468): < 10 nM
GI50 [4]: < 10 nM
GI50 (SK-MEL-5): < 10 nM
GI50 (SK-MEL-2): 8160 nM
GI50 (HCC 2998): < 10 nM
GI50 (OVCAR-5): 40.4 nM
GI50 (MDA-MB-435): < 10 nM
GI50 (RPMI-8226): < 10 nM
GI50 (PC-3): < 10 nM
GI50 (HCT-15): < 10 nM
GI50 (SK-MEL-28): < 10 nM
GI50 (RXF 393): < 10 nM
GI50 (NCI/ADR-RES): < 10 nM
GI50 (SN12C): 16.1 nM
GI50 (HT-29): < 10 nM
